Source: US5607691A, “Compositions and methods for enhanced drug delivery” (priority 1995, dated 1997)
Counter-ions that a name gives are not always drawn.

Experiment: in vitro
Type: in vitro ADME, human
Settings: human, serum, Table 5; human serum, 37° C.; read-out: Serum Half-life (converted)
Text: Table 4 lists the serum half-lives for several model compounds and two representative pharmaceutical agent-chemical modifier complexes using an in vitro assay system described in the Experimental section below. Of course, the serum half-lives will vary in vivo depending upon the age and health condition of the patient. Each complex comprises a model compound or a pharmaceutical agent, a spacer group, and a chemical modifier. Many of the model compounds utilize 4-nitrophenyl(ethanol, propanol, or cyclohexanol) or 4-nitrophenylethylamine as the "model" pharmaceutical agent. A more complete listing of serum half-lives may be found in the Experimental section below.
General procedure for serum hydrolysis of pharmaceutical agent-modifier complexes
Stock solutions (6 mM) of the pharmaceutical agent-modifier complexes were prepared in ethanol (by vortexing, sonication or warming at 37° C. if necessary). If required for solubility, a drop of dimethylsulfoxide, dimethylformamide or methanol may be added. (Acetonitrile cannot be used because it deactivates the serum enzymes.)
HPLC separation methods were established for each study by dilution of the above stock solution (6 μl) in acetonitrile (1 ml) to give a 36 μM solution. Samples (10 μl) were injected onto a Nucleosil 5C8 (250×4 mmID) and guard column (11×4 mm ID) and eluted with a mobile phase of approximately 65% HPLC grade water and 35% of a solution of 0.1% trifluoroacetic acid in acetonitrile, the exact proportions being adjusted in each case to give optimum separation and run times.
Freshly defrosted human serum (3 ml, Sigma) was warmed at 37° C. for five minutes and then 60 μl of the agent-modifier complex stock solution was added with vortexing. […] The aliquots were added to 800 μl of 2% zinc sulfate solution in a 1.5 ml disposable microcentrifuge tube, vortexed immediately and centrifuged at 14,000 RPM for 3 minutes. The supernatants (10 μl) were then injected onto the HPLC and peak areas were used to determine the % remaining. Serum blanks were prepared similarly by addition of serum to the zinc sulfate solution followed by centrifugation, and time=0 samples were also prepared by adding serum to the zinc sulfate solution followed by addition of the complex and separation by centrifugation. The time=0 samples, as well as the original stock solutions, were also used to study the stability of the complex in the absence of enzyme. Half-lives were calculated using the equation
by plotting time (x) vs. ln % remaining (y) to obtain the slope (m) and the y intercept (b).

Compound	half-life [h]
CC(=O)OC1CC(C(=O)O[C@H]2[C@@H](O)C[C@H](O[C@H]3[C@@H](O)C[C@H](O[C@H]4[C@@H](O)C[C@H](O[C@H]5CC[C@@]6(C)[C@H](CC[C@@H]7[C@@H]6C[C@@H](O)[C@]6(C)[C@@H](C8=CC(=O)OC8)CC[C@]76O)C5)O[C@@H]4C)O[C@@H]3C)O[C@@H]2C)[N+](C)(C)C1 (stereo partly shown) [digoxin-4"'-[(O-acetyl)-betonicine ester], chloride salt]	0.03
CC1OC(OC2C(O)CC(OC3C(O)CC(OC4CCC5(C)C(CCC6C5CC(O)C5(C)C(C7=CC(=O)OC7)CCC65O)C4)OC3C)OC2C)CC(O)C1OC(=O)CCCN(C)C (stereo not shown) [digoxin-4'"-4-(dimethylamino)butyrate]	1.4
CC1OC(OC2C(O)CC(OC3C(O)CC(OC4CCC5(C)C(CCC6C5CC(O)C5(C)C(C7=CC(=O)OC7)CCC65O)C4)OC3C)OC2C)CC(O)C1OC(=O)CCC[N+](C)(C)C (stereo not shown) [digoxin-4'"-(4-trimethylamino)butyrate bromide]	7
CC(=O)OC(CC(=O)OC1C(O)CC(OC2C(O)CC(OC3C(O)CC(OC4CCC5(C)C(CCC6C5CC(O)C5(C)C(C7=CC(=O)OC7)CCC65O)C4)OC3C)OC2C)OC1C)C[N+](C)(C)C (stereo not shown) [digoxin-4'"-(O-acetylcarnitinate) chloride salt]	0.0833
CCCCCCCCCCCCCCCC(=O)OC(CC(=O)OC1C(O)CC(OC2C(O)CC(OC3C(O)CC(OC4CCC5(C)C(CCC6C5CC(O)C5(C)C(C7=CC(=O)OC7)CCC65O)C4)OC3C)OC2C)OC1C)C[N+](C)(C)C (stereo not shown) [digoxin-4'"-(O-palmitoylcarnitinate) chloride salt]	0.317
CC1OC(OC2C(O)CC(OC3C(O)CC(OC4CCC5(C)C(CCC6C5CC(O)C5(C)C(C7=CC(=O)OC7)CCC65O)C4)OC3C)OC2C)CC(O)C1OC(=O)OCC[N+](C)(C)C (stereo not shown) [digoxin-4'"-(choline chloride) carbonate ester]	0.0219
CC(CCCC(=O)OC1C(O)CC(OC2C(O)CC(OC3C(O)CC(OC4CCC5(C)C(CCC6C5CC(O)C5(C)C(C7=CC(=O)OC7)CCC65O)C4)OC3C)OC2C)OC1C)OC(=O)CCC[N+](C)(C)C (stereo not shown) [digoxin-4'"-[5-(4-trimethylaminobutyroyloxy)-hexanoate] bromide salt]	14
CC1OC(OC2C(O)CC(OC3C(O)CC(OC4CCC5(C)C(CCC6C5CC(O)C5(C)C(C7=CC(=O)OC7)CCC65O)C4)OC3C)OC2C)CC(O)C1OC(=O)C1CCC[N+]1(C)C (stereo not shown) [digoxin-4'"-stachydrine ester, chloride salt]	0.085
CC1OC(OC2CCC3(C)C(CCC4C3CC(OC(=O)CCC[N+](C)(C)C)C3(C)C(C5=CC(=O)OC5)CCC43O)C2)CC(O)C1OC1CC(O)C(OC2CC3OC(=O)OC3C(C)O2)C(C)O1 (stereo not shown) [digoxin-12-(4-trimethylaminobutyrate)-3'",4'"-cyclic carbonate, bromide salt]	96
CC1OC(OC2CCC3(C)C(CCC4C3CC(OC(=O)OC[N+](C)(C)C)C3(C)C(C5=CC(=O)OC5)CCC43O)C2)CC(O)C1OC1CC(O)C(OC2CC3OC(=O)OC3C(C)O2)C(C)O1 (stereo not shown) [digoxin-12-(N,N,N-trimethylaminomethyl)-carbonate 3"',4'"-cyclic carbonate, chloride salt]	0.7
CC1OC(OC2CCC3(C)C(CCC4C3CC(OC(=O)OCC[N+](C)(C)C)C3(C)C(C5=CC(=O)OC5)CCC43O)C2)CC(O)C1OC1CC(O)C(OC2CC3OC(=O)OC3C(C)O2)C(C)O1 (stereo not shown) [digoxin-12-(choline carbonate)-3'",4'"-cyclic carbonate, bromide salt]	29
C[C@H]1O[C@@H](O[C@H]2[C@@H](O)C[C@H](O[C@H]3[C@@H](O)C[C@H](O[C@H]4CC[C@@]5(C)[C@H](CC[C@@H]6[C@@H]5C[C@@H](OC(=O)OCCCCCCOC(=O)C[N+](C)(C)C)[C@]5(C)[C@@H](C7=CC(=O)OC7)CC[C@]65O)C4)O[C@@H]3C)O[C@@H]2C)C[C@@H]2OC(=O)O[C@@H]21 [digoxin-12-[1-(6-betainoyloxyhexyl)]carbonate-3"',4"'-cyclic carbonate, chloride salt]	470

Same assay, conditions: human, serum, untitled table of digoxin derivatives (position/substituent); assay not given; read-out: Half Life (converted)

Compound	half-life [h]
CC1OC(OC2CCC3(C)C(CCC4C3CC(OC(=O)CCC[N+](C)(C)C)C3(C)C(C5=CC(=O)OC5)CCC43O)C2)CC(O)C1OC1CC(O)C(OC2CC3OC(=O)OC3C(C)O2)C(C)O1 (stereo not shown) [digoxin-12-(4-trimethylaminobutyrate)-3'",4'"-cyclic carbonate, bromide salt]	96
